Our source for the MIC and IC50 values is ChEMBL document CHEMBL5356986, “Research status of indole-modified natural products” (RSC Med Chem, 2023).

In one data set the test system is Aspergillus niger. Put plainly: […] against Aspergillus niger assessed as […] incubated for 24 hrs by agar disc diffusion assay. Format: functional. In general terms: Agar diffusion results depend on both activity and mobility in agar.
In another data set the test system is Candida albicans. As to the kind of experiment: Antibacterial activity against Candida albicans assessed as reduction in bacterial growth. The data set is classed as functional.
The subject of a further data set is Fusarium oxysporum. As to the kind of experiment: Antifungal activity against Fusarium oxysporum assessed as inhibition of fungal growth. The data set is classed as functional.
Another data set has as its system Klebsiella pneumoniae. As to the kind of experiment: Antibacterial activity against Klebsiella pneumoniae assessed as reduction in bacterial growth by broth microdilution method. The data set is classed as functional. (Dilution methods test growth across graded concentrations, often in twofold steps.)
The next data set relates to Bacillus subtilis. As to the kind of experiment: Antibacterial activity against Bacillus subtilis assessed as reduction in microbial growth. The data set is classed as functional.
Data set [1] has as its system Staphylococcus aureus. Put plainly: Antibacterial activity against Staphylococcus aureus assessed as reduction in microbial growth. The data set is classed as functional.
A further data set concerns RAW264.7. As to the kind of experiment: Anti-inflammatory activity in mouse RAW264.7 cells assessed as inhibition of LPS-induced NO production. Format: functional, cell-based.
Data set [2] relates to Escherichia coli. As to the kind of experiment: Antibacterial activity against Escherichia coli assessed as reduction in bacterial cell viability. The data set is classed as functional.
A further data set concerns Leishmania donovani. As to the kind of experiment: Antileishmanial activity against Leishmania donovani assessed as parasite growth inhibition. The data set is classed as functional, organism-based.
Data set [3] in a line: Antioxidant activity assessed as DPPH radical scavenging activity. The data set is classed as functional. In general terms: Loss of DPPH colour is used to gauge radical scavenging.
For data set [4], the system named is HepG2. Put plainly: Cytotoxicity against human HepG2 cells by MTT assay. The data set is classed as functional, cell-based.
Data set [5] deals with MCF7. Put plainly: Cytotoxicity against human MCF7 cells assessed as reduction in cell viability after 48 hrs by SRB assay. The data set is classed as functional, cell-based. Conditions: MCF7, 48 h.
Data set [6] relates to A549. As to the kind of experiment: Antiproliferative activity against human A549 cells assessed as reduction in cell viability by MTT assay. The data set is classed as functional, cell-based.
The subject of data set [7] is Toxoplasma gondii. As to the kind of experiment: Antiparasitic activity against Toxoplasma gondii tachyzoites infected in human HeLa cells measured after 24 hrs by MTT assay. The data set is classed as functional, organism-based.
The next data set relates to MDA-MB-231. As to the kind of experiment: Antiproliferative activity against human MDA-MB-231 cells assessed as reduction in cell viability incubated for 48 hrs by MTT assay. The data set is classed as functional, cell-based. Conditions: MDA-MB-231, 48 h.
The test system of data set [8] is MCF7. As to the kind of experiment: Antiproliferative activity against human MCF7 cells assessed as inhibition of cell growth by CCK8 assay. The data set is classed as functional, cell-based.
The next data set relates to MDA-MB-453. Put plainly: Antiproliferative activity against human MDA-MB-453 cells assessed as inhibition of cell growth incubated for 48 hrs by MTT assay. The data set is classed as functional, cell-based. Conditions: MDA-MB-453, 48 h.
Data set [9] relates to HeLa. As to the kind of experiment: Cytotoxicity against human HeLa cells assessed as reduction in cell viability incubated for 48 hrs by MTT assay. The data set is classed as functional, cell-based.
In the next data set the test system is PC-3. Put plainly: Antiproliferative activity against human PC-3 cells assessed as reduction in cell growth measured after 24 hrs by MTT assay. The data set is classed as functional, cell-based. Conditions: PC-3, 24 h.
A short description of data set [10]: Cytotoxicity against mouse RAW264.7 cells assessed as reduction in cell viability incubated for 48 hrs by MTT assay. The data set is classed as toxicity, cell-based.
Data set [11] concerns MCF7. As to the kind of experiment: Cytotoxicity against human MCF7 cells assessed as reduction in cell viability by MTS assay. Format: functional, cell-based.
The test system of the next data set is HCT-116. Put plainly: Cytotoxicity against human HCT-116 cells assessed as reduction in cell viability by MTS assay. The data set is classed as functional, cell-based.
Data set [12] concerns Trichophyton mentagrophytes. As to the kind of experiment: Antifungal activity against Trichophyton mentagrophytes assessed as inhibition of microbial growth. Format: functional.
Another data set relates to Arthrodermataceae. Put plainly: Antibacterial activity against Arthrodermataceae. Format: functional.
For another data set, the system named is Nannizzia gypsea. As to the kind of experiment: Antifungal activity against Microsporum gypseum assessed as fungal growth inhibition. Format: functional.
For data set [13], the system named is A549. Put plainly: Antiproliferative activity against human A549 cells assessed as reduction in cell growth incubated for 72 hrs by MTT assay. Format: functional, cell-based. Conditions: A549, 72 h.
The test system of a further data set is Hep 3B2. Put plainly: Cytotoxicity against human Hep3B cells assessed as cell growth inhibition by MTT colorimetric assay. The data set is classed as functional, cell-based.
The next data set deals with SMMC-7721. As to the kind of experiment: Cytotoxicity against human SMMC-7721 cells assessed as reduction in cell viability by SRB assay. Format: functional, cell-based.
For data set [14], the system named is HepG2. Put plainly: Cytotoxicity against human HepG2 cells assessed as reduction in cell viability by MTT assay. The data set is classed as functional.
In the next data set the test system is Caco-2. As to the kind of experiment: Antiproliferative activity against human Caco-2 cells incubated for 96 hrs by MTT assay. Conditions: Caco-2, 96 h. Format: functional, cell-based.
The subject of data set [15] is Trichophyton mentagrophytes. As to the kind of experiment: Antifungal activity against Trichophyton mentagrophytes assessed as inhibition of fungal growth incubated for 48 hrs by serial plate dilution method. The data set is classed as functional.
Another data set has as its system Acinetobacter baumannii. As to the kind of experiment: Antibacterial activity against Acinetobacter baumannii assessed as reduction in bacterial growth by broth microdilution method. The data set is classed as functional.
For data set [16], the system named is Staphylococcus aureus. As to the kind of experiment: Antibacterial activity against Staphylococcus aureus […] assessed as reduction in microbial growth. The data set is classed as functional.
The test system of data set [17] is Staphylococcus aureus. Put plainly: Antibacterial activity against methicillin-resistant Staphylococcus aureus assessed as reduction in microbial growth. Format: functional.
Another data set concerns Enterococcus faecalis. Put plainly: Antibacterial activity against Enterococcus faecalis assessed as reduction in bacterial growth. Format: functional.
The subject of data set [18] is Staphylococcus aureus. Put plainly: Antibacterial activity against Staphylococcus aureus ATCC 29213 assessed as reduction in microbial growth. The data set is classed as functional.
In data set [19] the test system is Escherichia coli. Put plainly: Antibacterial activity against Escherichia coli assessed as reduction in bacterial growth by broth microdilution method. Format: functional.
The subject of data set [20] is Toxoplasma gondii. Put plainly: Antiparasitic activity against Toxoplasma gondii tachyzoites infected in human HeLa cells. Conditions: Toxoplasma gondii, HeLa. The data set is classed as functional, organism-based.
Data set [21] concerns HeLa. Put plainly: Antiproliferative activity against human HeLa cells assessed as inhibition of cell growth incubated for 72 hrs by MTT assay. The data set is classed as functional, cell-based.

In brackets after ≈: the same amount, converted by molar mass.

In general, MIC refers to the lowest concentration that inhibits growth of the organism. By IC50 is commonly meant the concentration that inhibits the measured activity by half. `NC(Cc1c[nH]c2ccccc12)C(=O)Oc1ccc2c(=O)c3ccccc3oc2c1` (stereo not drawn): the MIC in the data set on Aspergillus niger came out at 21 µg/mL (≈ 52.7 µM); with Candida albicans, 20 µg/mL (≈ 50.2 µM); with Fusarium oxysporum, 20 µg/mL (≈ 50.2 µM); in the data set on Klebsiella pneumoniae, 22 µg/mL (≈ 55.2 µM); in the data set with Bacillus subtilis, 16 µg/mL; with Staphylococcus aureus [1] it was 16 µg/mL. Also, in the data set with Escherichia coli [2], the MIC turned out to be 15 µg/mL (≈ 37.6 µM). In addition, the IC50 with RAW264.7 was 26 µg/mL (≈ 65.3 µM).
On to `O=C(CCC(c1ccccc1)c1c[nH]c2ccccc12)c1c(O)c2ccccc2oc1=O` (stereo not drawn), for which the 50% inhibitory concentration (IC50) in the data set with Leishmania donovani came to 95.5 µg/mL (≈ 226 µM); in data set [3] it was 12.4 µM.
With `CC(=O)Oc1ccc(C(=O)/C=C/c2ccc3c(ccn3C)c2)c2c1C=CC(C)(C)O2`, the IC50 in the data set with HepG2 [4] was 0.22 µM.
Take `C[C@@H]1CC[C@H]2[C@@H](C)C(OC(=O)c3cc4cc(Cl)ccc4[nH]3)O[C@@H]3O[C@@]4(C)CC[C@@H]1[C@]32OO4` (stereo partly drawn): the IC50 in the data set with MCF7 [5] stood at 5.25 µM; with A549 [6], 6.17 µM; in the data set on Toxoplasma gondii [7], 85.3 µM.
Regarding `C[C@]12CC[C@H](OC(=O)[C@H](N)c3c[nH]c4ccccc34)C[C@H]1CC[C@@H]1[C@@H]2[C@H](N)C(=O)[C@]2(C)[C@@H](c3ccc(=O)oc3)CC[C@]12O`, the IC50 was 0.027 µM in the data set on MDA-MB-231, 11.6 µM in the data set on MCF7 [8] and 0.0106 µM with MDA-MB-453.
`COc1ccc(/C=C/C(=O)/C=C/c2c[nH]c3ccccc23)c(OC)c1OC`: the IC50 was 3.31 µM in the data set with HeLa [9] and 3.15 µM in the data set on PC-3.
In the case of `C=C(C)[C@@H]1CC[C@]2(C)CC[C@]3(C)[C@H](CC[C@@H]4[C@@]5(C)Cc6c([nH]c7cc(I)ccc67)C(C)(C)[C@@H]5CC[C@]43C)[C@@H]12`, the IC50 at 48 h in [10] is 22.6 µM.
As for `C=C1CC[C@H]2[C@@](C)(Cc3c([nH]c4ccccc34)[C@@]2(C)COC(C)=O)[C@@H]1C/C=C1\C=COC1=O`, the IC50 in the data set on MCF7 [11] is 1.85 µM; in the data set on HCT-116, 1.22 µM.
On to `COc1ccc(/C=C/C(=O)c2cn(C)c3ccccc23)cc1`, for which the figures for the MIC (in data set [12]; against Arthrodermataceae; with Nannizzia gypsea) were 8 µg/mL, 4 µg/mL (≈ 13.7 µM) and 1 µg/mL (≈ 3.43 µM), respectively.
With `CCOc1c(Br)cc(/C=C/C(=O)c2cc3ccccc3n2C)cc1OC`, the IC50 in the data set on A549 [13] was found to be 4.3 µM.
Take `CCOC(=O)c1ccc2c(c1)c1c(n2CCN2CCNCC2)-c2cc(C(C)C)ccc2[C@@]2(C)CCC[C@@](C)(C(=O)OC)[C@H]12`: the values for the IC50 in the data set on Hep 3B2, in the data set with SMMC-7721 and with HepG2 [14] were < 0.73 µM, < 1.39 µM and 0.51 µM, respectively.
Take `COc1cc(/C=C/C(=O)/C=C/c2c[nH]c3ccccc23)ccc1O`: the midpoint of inhibition in the data set with Caco-2, the IC50, lay at 8 µM.
As for `CCOc1c(Br)cc(/C=C/C(=O)c2c[nH]c3ccccc23)cc1OC`, the MIC in data set [12] is 4 µg/mL; in [15] it was 2 µg/mL (≈ 5 µM); with Nannizzia gypsea, 0.25 µg/mL (≈ 0.625 µM).
Turning to `Cc1cc(=O)oc2cc(/N=C3/S/C(=C\c4c[nH]c5ccccc45)C(=O)N3CCO)ccc12`, the MIC in the data set with Acinetobacter baumannii was 0.25 µg/mL (≈ 0.561 µM); with Staphylococcus aureus [16] it was 0.25 µg/mL; in the data set on Staphylococcus aureus [17] it was 0.25 µg/mL; with Enterococcus faecalis, 0.25 µg/mL (≈ 0.561 µM); in the data set with Staphylococcus aureus [18], 0.25 µg/mL; in the data set on Escherichia coli [19], 0.25 µg/mL (≈ 0.561 µM).
As for `COc1cc(C(=O)/C=C/c2c[nH]c3ccccc23)cc([Se]C)c1OC`, the IC50 is 0.023 µM in the data set on Toxoplasma gondii [20] and 0.059 µM in the data set on HeLa [21].
`O=C(CCC(c1c(Cl)cccc1Cl)c1c[nH]c2ccccc12)c1c(O)c2ccccc2oc1=O` (stereo not drawn): the results for the IC50 (with Leishmania donovani; in [3]) were 95 µg/mL (≈ 193 µM) and 13.5 µM, respectively.
